A short description of data set [1]: Lethal dose was evaluated against reserpine induced hypothermia in mice by intraperitoneal administration. Particulars: mouse, in vivo, ip. The class given is toxicity, organism-based.
Data set [2] in a line: Therapeutic index as the ratio of LD50 to that of ED50 values.
The test system of data set [3] is Mus musculus. As to the kind of experiment: Effective dose was evaluated for its antagonism to reserpine induced hypothermia in mice by intraperitoneal administration. The class given is functional. Particulars: ip.

Consider `CN(C)CCNc1cc(-c2ccccc2)c2ccccc2n1.Cl`, for which the LD50 in data set [1] turned out to be 102 mg/kg. Further, the therapeutic index (LD50/ED50) in data set [2] is 3.92. In addition, it took a dose of 26 mg/kg to reach the 50% effect level in data set [3] (ED50).
The compound `Cl.O=c1n(CCCN2CCN(c3cc(-c4ccccc4)c4ccccc4n3)CC2)nc2ccccn12` returned an LD50 in data set [1] of 390 mg/kg. Further, the therapeutic index (LD50/ED50) in data set [2] came to 9.7. It took a dose of 40.2 mg/kg to reach the 50% effect level in data set [3] (ED50).
In turn, `CN(C)CCCN(C)c1cc(-c2ccccc2)c2ccccc2n1.Cl` registered an LD50 in data set [1] of 110 mg/kg. Moreover, the ED50 in data set [3] is above 50 mg/kg.
The compound `CCN(CC)Cc1cc(-c2ccccc2)c2ccccc2n1.Cl` displayed an LD50 in data set [1] of 163 mg/kg. In addition, the therapeutic index (LD50/ED50) in data set [2] came to 7.76. This compound also came in with an ED50 in data set [3] above 50 mg/kg.
The like results for `Cl.c1ccc(-c2cc(N3CCNCC3)nc3ccccc23)cc1` were, in that order, 152 mg/kg, 12.7 and 12 mg/kg.
`CN(C)CCCN1c2ccccc2CCc2ccccc21` [IMIPRAMINE] came in with an ED50 in data set [3] of 21 mg/kg.
`CN(C)CCN(C)c1cc(-c2ccccc2)c2ccccc2n1.Cl`: the LD50 in data set [1] came to 98 mg/kg. For the same compound, the therapeutic index (LD50/ED50) in data set [2] was 3.63. In data set [3], this compound showed an ED50 of 27 mg/kg.
The like results for `Cl.ClCCCN1CCN(c2cc(-c3ccccc3)c3ccccc3n2)CC1` were, in that order, 385 mg/kg, 21.4 and 18 mg/kg.
For `CN(C)CCSc1cc(-c2ccccc2)c2ccccc2n1.Cl` the same measures were 198 mg/kg, 4.7 and 42.1 mg/kg.
For the compound `O=c1n(CCCN2CCN(c3cccc(Cl)c3)CC2)nc2ccccn12` [TRAZODONE], the ED50 in data set [3] was above 50 mg/kg.
Regarding `CN(C)CCCSc1cc(-c2ccccc2)c2ccccc2n1.Cl`, in data set [1], the LD50 was 189 mg/kg. For the same compound, in data set [3], the ED50 is above 50 mg/kg.
For `CN(C)CCCOc1cc(-c2ccccc2)c2ccccc2n1.Cl` the same measures were 200 mg/kg and above 50 mg/kg.
The like results for `CN(C)CCCNc1cc(-c2ccccc2)c2ccccc2n1.Cl` were, in that order, 100 mg/kg and above 50 mg/kg.
For `c1ccc2nc(N3CCNCC3)ccc2c1` [QUIPAZINE] the same measures were 135 mg/kg and 35.4 mg/kg.
As for `CN(C)CCOc1cc(-c2ccccc2)c2ccccc2n1.Cl`, the LD50 in data set [1] came out at 202 mg/kg. Further, in data set [2], the therapeutic index (LD50/ED50) turned out to be 10.9. Further, in data set [3], the ED50 amounted to 18.5 mg/kg.

(Values after ChEMBL document CHEMBL1122941, “Design, synthesis, and pharmacological activities of 2-substituted 4-phenylquinolines as potential antidepressant drugs” (J Med Chem, 1985).)
